{"source": "ChEMBL document CHEMBL3526034", "about": "(Drug Metab Dispos, 2013)", "key": {"[1]": {"molecular_target": "T1, Cytochrome P450 2B6 (Homo sapiens, UniProt P20813)", "T1 sequence (P20813 whole entry)": "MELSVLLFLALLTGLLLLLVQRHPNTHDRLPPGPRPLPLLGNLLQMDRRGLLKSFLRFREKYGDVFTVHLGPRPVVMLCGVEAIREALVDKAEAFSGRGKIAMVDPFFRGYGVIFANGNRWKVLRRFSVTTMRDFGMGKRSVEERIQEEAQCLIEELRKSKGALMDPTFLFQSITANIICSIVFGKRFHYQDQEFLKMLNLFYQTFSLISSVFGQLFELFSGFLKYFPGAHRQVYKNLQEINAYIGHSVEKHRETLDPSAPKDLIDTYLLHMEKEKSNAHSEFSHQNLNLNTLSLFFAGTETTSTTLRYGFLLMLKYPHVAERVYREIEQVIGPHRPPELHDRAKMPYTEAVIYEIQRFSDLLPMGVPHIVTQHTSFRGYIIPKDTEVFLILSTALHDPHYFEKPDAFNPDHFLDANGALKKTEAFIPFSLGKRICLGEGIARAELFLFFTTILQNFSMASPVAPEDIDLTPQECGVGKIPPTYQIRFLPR", "test": "Inhibition of CYP2B6 in human liver microsomes using bupropion as substrate preincubated for 20 mins with substrate prior to initiation of reaction with NADPH by HPLC analysis", "format": "ADME"}, "[2]": {"molecular_target": "UDP-glucuronosyltransferase 1A9 (Homo sapiens, UniProt O60656)", "sequence (O60656 whole entry)": "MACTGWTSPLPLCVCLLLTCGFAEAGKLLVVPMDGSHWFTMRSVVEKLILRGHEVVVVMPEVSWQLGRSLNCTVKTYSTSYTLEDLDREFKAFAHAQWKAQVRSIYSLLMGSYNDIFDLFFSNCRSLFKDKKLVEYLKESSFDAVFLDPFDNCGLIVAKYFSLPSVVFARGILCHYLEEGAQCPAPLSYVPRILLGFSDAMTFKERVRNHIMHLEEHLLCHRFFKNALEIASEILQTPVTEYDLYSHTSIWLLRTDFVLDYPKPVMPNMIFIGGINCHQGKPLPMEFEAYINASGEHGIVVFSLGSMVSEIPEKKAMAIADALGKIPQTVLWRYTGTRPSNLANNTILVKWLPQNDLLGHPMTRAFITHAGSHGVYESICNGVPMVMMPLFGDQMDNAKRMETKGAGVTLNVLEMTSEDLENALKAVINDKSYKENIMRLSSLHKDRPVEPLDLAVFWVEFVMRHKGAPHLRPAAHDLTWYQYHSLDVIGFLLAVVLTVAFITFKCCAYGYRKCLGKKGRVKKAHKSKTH", "test": "(§1) Drug metabolism assessed as UDPGA-fortified human recombinant UGT1A9-mediated DTG glucuronide metabolite ((2S,3S,4S,5R,6S)-6-((4R,12aS)-9-(2,4-difluorobenzylcarbamoyl)-4-methyl-6,8-dioxo-3,4,6,8,12,12a-hexahydro-2H-[1,3]oxazino[3,2-d]pyrido[1,2-a]pyrazin-7-yloxy)-3,4,5-trihydroxytetrahydro-2H-pyran-2-carboxylic acid) formation at 16 uM after 120 mins by radio-HPLC analysis", "format": "ADME", "details": "recombinant enzyme"}, "[3]": {"molecular_target": "UDP-glucuronosyltransferase 2B15 (Homo sapiens, UniProt P54855)", "sequence (P54855 whole entry)": "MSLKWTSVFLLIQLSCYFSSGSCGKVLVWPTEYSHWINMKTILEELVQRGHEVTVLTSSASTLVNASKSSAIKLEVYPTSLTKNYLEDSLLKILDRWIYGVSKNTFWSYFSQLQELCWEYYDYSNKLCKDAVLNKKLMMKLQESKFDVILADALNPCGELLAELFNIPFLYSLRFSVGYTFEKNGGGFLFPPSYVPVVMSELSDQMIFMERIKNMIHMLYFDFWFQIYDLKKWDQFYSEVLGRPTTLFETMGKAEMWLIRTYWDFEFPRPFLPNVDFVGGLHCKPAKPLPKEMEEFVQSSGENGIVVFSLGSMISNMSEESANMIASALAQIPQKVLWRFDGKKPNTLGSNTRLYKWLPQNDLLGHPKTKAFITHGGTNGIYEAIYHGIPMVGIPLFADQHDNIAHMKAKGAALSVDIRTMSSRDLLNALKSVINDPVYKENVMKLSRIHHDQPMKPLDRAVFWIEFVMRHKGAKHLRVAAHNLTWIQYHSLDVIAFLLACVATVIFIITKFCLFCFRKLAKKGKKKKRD", "test": "as §1, with “UGT2B15-mediated” for “UGT1A9-mediated”", "format": "ADME", "details": "recombinant enzyme"}, "[4]": {"molecular_target": "Cytochrome P450 3A4 (Homo sapiens, UniProt P08684)", "sequence (P08684 whole entry)": "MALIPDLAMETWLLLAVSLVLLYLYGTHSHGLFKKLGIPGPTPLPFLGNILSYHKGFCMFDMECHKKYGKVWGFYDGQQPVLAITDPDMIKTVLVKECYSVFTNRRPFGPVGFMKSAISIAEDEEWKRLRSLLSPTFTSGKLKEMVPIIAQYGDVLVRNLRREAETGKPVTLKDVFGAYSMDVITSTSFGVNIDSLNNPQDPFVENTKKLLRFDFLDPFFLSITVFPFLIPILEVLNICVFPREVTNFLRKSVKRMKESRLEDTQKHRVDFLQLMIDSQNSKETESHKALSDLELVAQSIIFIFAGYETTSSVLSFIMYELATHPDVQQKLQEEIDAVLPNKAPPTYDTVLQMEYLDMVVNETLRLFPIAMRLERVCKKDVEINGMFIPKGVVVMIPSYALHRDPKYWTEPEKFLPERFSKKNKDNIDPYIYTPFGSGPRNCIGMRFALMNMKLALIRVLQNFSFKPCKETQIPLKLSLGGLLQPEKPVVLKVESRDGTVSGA", "test": "Drug metabolism in supersomes expressing human recombinant CYP3A4 assessed as intrinsic clearance for NADPH-fortified enzyme-mediated metabolite M3 ((4R,12aS)-N-((3,5-difluorophenyl)(hydroxy)methyl)-7-hydroxy-4-methyl-6,8-dioxo-3,4,6,8,12,12a-hexahydro-2H-[1,3]oxazino[3,2-d]pyrido[1,2-a]pyrazine-9-carboxamide) formation at 5 uM after 120 mins by radio-HPLC analysis", "format": "ADME"}, "[5]": {"molecular_target": "T2, Cytochrome P450 2C8 (Homo sapiens, UniProt P10632)", "T2 sequence (P10632 whole entry)": "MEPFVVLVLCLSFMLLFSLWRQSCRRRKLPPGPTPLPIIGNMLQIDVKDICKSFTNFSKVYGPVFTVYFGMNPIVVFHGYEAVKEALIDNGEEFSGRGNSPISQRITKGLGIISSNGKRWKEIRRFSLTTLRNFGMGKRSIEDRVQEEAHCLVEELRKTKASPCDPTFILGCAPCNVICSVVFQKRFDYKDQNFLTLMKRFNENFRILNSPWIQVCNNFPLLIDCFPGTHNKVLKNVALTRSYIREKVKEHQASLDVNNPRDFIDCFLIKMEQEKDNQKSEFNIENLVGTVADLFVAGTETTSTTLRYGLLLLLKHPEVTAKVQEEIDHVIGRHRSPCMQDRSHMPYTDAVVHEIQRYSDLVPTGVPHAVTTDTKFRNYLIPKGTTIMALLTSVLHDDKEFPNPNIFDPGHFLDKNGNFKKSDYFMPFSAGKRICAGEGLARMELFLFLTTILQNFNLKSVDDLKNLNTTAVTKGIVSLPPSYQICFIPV", "test": "Drug metabolism in supersomes expressing human recombinant CYP2C8 assessed as NADPH-fortified enzyme-mediated metabolite formation at 5 uM after 120 mins by radio HPLC analysis", "format": "ADME", "details": "2 h"}, "[6]": {"molecular_target": "T3, Cytochrome P450 1A2 (Homo sapiens, UniProt P05177)", "T3 sequence (P05177 whole entry)": "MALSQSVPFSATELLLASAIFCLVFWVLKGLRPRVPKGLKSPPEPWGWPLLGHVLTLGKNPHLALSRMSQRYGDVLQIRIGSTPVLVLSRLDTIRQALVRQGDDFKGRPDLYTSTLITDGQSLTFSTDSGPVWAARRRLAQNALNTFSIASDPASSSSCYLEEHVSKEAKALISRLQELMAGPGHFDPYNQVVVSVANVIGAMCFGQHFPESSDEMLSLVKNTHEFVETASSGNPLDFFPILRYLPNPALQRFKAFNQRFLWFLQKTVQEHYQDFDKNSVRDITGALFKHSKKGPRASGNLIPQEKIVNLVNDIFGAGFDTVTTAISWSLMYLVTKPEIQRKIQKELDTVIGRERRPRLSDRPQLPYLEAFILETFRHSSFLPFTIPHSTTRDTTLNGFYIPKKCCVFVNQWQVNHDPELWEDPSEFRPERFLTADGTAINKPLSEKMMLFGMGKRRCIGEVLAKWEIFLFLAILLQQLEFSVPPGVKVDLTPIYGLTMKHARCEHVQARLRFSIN", "test": "Drug metabolism in supersomes expressing human recombinant CYP1A2 assessed as NADPH-fortified enzyme-mediated metabolite formation at 5 uM after 120 mins by radio HPLC analysis", "format": "ADME", "details": "2 h"}, "[7]": {"molecular_target": "UDP-glucuronosyltransferase 1A3 (Homo sapiens, UniProt P35503)", "sequence (P35503 whole entry)": "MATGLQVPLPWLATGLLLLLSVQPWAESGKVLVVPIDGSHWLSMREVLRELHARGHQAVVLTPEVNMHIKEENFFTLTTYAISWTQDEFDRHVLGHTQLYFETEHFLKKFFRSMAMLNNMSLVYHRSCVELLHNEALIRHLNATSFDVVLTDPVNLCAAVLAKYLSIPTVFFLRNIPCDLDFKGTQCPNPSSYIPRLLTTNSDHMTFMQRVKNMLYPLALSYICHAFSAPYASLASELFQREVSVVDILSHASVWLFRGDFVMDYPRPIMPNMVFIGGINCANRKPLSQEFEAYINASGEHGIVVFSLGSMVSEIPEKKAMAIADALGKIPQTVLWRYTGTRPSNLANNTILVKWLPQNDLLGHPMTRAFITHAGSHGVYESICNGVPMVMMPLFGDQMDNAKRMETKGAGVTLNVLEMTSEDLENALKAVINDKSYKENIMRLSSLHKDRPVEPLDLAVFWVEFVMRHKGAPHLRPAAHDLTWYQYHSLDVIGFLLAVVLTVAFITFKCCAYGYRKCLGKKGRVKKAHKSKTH", "test": "as §1, with “UGT1A3-mediated” for “UGT1A9-mediated”", "format": "ADME", "details": "recombinant enzyme"}, "[8]": {"molecular_target": "T1, Cytochrome P450 2B6", "test": "Metabolism-dependent inhibition of CYP2B6 in human liver microsomes using bupropion as substrate preincubated for 20 mins with NADPH prior to initiation of reaction with probe substrate by HPLC analysis", "format": "ADME"}, "[9]": {"molecular_target": "ATP-dependent translocase ABCB1 (Homo sapiens, UniProt P08183)", "sequence (P08183 whole entry)": "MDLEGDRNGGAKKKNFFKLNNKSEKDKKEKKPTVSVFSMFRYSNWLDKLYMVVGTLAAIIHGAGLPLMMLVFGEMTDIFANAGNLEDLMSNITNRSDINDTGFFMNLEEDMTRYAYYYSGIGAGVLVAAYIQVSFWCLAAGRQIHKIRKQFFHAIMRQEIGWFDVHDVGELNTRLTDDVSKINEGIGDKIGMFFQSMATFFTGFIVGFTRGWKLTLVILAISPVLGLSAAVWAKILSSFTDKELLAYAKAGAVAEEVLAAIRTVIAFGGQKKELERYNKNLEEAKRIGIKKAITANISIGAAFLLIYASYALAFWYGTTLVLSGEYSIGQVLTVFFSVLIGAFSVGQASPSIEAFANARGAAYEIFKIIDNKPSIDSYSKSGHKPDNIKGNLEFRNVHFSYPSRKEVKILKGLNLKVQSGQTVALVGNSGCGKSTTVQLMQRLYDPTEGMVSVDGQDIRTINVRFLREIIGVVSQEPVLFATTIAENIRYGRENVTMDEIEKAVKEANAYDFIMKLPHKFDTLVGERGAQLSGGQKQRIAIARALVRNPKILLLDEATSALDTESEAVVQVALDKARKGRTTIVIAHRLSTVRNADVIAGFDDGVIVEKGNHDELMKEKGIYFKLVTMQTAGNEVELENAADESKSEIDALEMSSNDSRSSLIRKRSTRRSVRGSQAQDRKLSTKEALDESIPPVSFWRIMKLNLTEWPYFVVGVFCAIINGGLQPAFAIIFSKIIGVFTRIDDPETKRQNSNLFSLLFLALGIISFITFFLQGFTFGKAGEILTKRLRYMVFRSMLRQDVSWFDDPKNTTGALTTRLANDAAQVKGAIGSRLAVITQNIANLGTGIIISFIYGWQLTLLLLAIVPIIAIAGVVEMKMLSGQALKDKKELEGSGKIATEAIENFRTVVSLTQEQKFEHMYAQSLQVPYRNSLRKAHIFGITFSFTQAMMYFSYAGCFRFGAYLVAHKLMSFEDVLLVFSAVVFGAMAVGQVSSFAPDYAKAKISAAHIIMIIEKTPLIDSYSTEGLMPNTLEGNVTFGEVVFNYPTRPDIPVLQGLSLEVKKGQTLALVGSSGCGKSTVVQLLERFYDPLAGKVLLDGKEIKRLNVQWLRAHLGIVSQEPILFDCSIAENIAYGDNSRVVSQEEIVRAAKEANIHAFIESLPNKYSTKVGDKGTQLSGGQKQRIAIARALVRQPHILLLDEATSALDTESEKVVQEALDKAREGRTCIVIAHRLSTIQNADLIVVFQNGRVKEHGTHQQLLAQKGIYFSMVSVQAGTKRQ", "test": "Inhibition of MDR1 (unknown origin) expressed in MDCK2 cells assessed as basolateral to apical transport of [3H]digoxin after 90 mins by liquid scintillation counting analysis", "format": "ADME, cell-based, MDCK-II"}, "[10]": {"molecular_target": "T2, Cytochrome P450 2C8", "test": "Inhibition of CYP2C8 in human liver microsomes using rosiglitazone as substrate preincubated for 20 mins with substrate prior to initiation of reaction with NADPH by HPLC analysis", "format": "ADME"}, "[11]": {"molecular_target": "T1, Cytochrome P450 2B6", "test": "Drug metabolism in supersomes expressing human recombinant CYP2B6 assessed as NADPH-fortified enzyme-mediated metabolite formation at 5 uM after 120 mins by radio HPLC analysis", "format": "ADME", "details": "2 h"}, "[12]": {"molecular_target": "Solute carrier family 22 member 2 (Homo sapiens, UniProt O15244)", "sequence (O15244 whole entry)": "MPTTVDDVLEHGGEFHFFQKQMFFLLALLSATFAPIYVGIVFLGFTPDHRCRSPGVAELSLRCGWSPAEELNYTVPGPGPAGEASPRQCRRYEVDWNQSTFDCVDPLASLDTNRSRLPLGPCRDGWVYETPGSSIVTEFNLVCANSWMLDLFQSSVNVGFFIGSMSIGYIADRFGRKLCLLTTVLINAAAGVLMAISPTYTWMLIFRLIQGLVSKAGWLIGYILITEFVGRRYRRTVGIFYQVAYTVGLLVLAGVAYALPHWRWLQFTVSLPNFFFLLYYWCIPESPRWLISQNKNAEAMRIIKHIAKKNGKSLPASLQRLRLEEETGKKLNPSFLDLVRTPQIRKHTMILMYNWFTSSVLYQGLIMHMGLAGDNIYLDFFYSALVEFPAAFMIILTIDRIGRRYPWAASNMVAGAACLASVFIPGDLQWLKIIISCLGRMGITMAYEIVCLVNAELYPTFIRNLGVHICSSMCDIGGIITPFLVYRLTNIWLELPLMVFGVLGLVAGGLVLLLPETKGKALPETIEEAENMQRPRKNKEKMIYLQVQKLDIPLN", "test": "Inhibition of human OCT2 expressed in MDCK2 cells using [14C]metformin as substrate at 25 uM by liquid scintillation counting analysis", "format": "ADME, cell-based", "details": "mdck-ii"}, "[13]": {"test": "Drug excretion in human urine at 20 mg, po", "format": "ADME, tissue-based", "details": "read-out: Drug excretion"}, "[14]": {"molecular_target": "T3, Cytochrome P450 1A2", "test": "Inhibition of CYP1A2 in human liver microsomes using phenacetin as substrate preincubated for 20 mins with substrate prior to initiation of reaction with NADPH by HPLC analysis", "format": "ADME"}}}
{"smiles": "C[C@@H]1CCO[C@H]2Cn3cc(C(=O)NCc4ccc(F)cc4F)c(=O)c(O)c3C(=O)N12", "note": "[DOLUTEGRAVIR]", "values": [{"measurement": "IC50", "setting": "[1]", "value": "> 100", "unit": "µM"}, {"measurement": "Drug metabolism", "setting": "[2]", "value": "metabolite_detected"}, {"measurement": "Drug metabolism", "setting": "[3]", "value": "metabolite_not_detected"}, {"measurement": "CL", "setting": "[4]", "value": 3, "unit": "µL/min/mg"}, {"measurement": "Drug metabolism", "setting": "[5]", "value": "metabolite_not_detected"}, {"measurement": "Drug metabolism", "setting": "[6]", "value": "metabolite_not_detected"}, {"measurement": "Drug metabolism", "setting": "[7]", "value": "metabolite_detected"}, {"measurement": "IC50", "setting": "[8]", "value": "> 100", "unit": "µM"}, {"measurement": "IC50", "setting": "[9]", "value": "> 100", "unit": "µM"}, {"measurement": "IC50", "setting": "[10]", "value": "> 100", "unit": "µM"}, {"measurement": "Drug metabolism", "setting": "[11]", "value": "metabolite_not_detected"}, {"measurement": "inhibition (INH)", "setting": "[12]", "value": 91, "unit": "%"}, {"measurement": "dose excreted", "setting": "[13]", "value": 31.6, "unit": "%"}, {"measurement": "IC50", "setting": "[14]", "value": "> 100", "unit": "µM"}]}
